Measured values: US20250296960A1, “PEPTIDE COMPOSITIONS AND METHODS OF USE THEREOF” (priority 2022, published 2025)
“And” between values parts separate entries of the source, which are not always exact repeats. Identical values can stand only once.

Legend:
[1] = Body weight loss in normal C57BL/6 mice, subcutaneous dosing; format: in vivo; conditions: for Weight loss (%): normal mice, after 48 or 72 hours
Procedure: To confirm the therapeutic effect of the peptide in vivo, polypeptides were administered to mice to measure changes in body weight. […] The peptides were delivered at 0.02% polysorbate 80 (PS80) in PBS and dosing volume was 10 mL/kg. Body weight was monitored 6 h, QD.
To confirm the therapeutic effect of the peptide in obesity, diabetes, or NASH, polypeptides were administered to mice to measure changes in food intake, blood glucose and body weight. […] In addition, a NASH animal model was prepared by feeding a high fat, high fructose, high cholesterol diet to normal C57BL/6 mice (approximately 6 weeks old) for approximately 21 weeks, and increasing the body weights of the mice to approximately 50 g on average. Thereafter, polypeptides were administered by subcutaneous injection at dose of 20 nmol/kg once every other day for 2 weeks. Body weight and food intake were measured once every other day given points of time. After 2 weeks of treatment period, mice were sacrificed, then liver weight, hepatic triglyceride, and NASH related biomarkers were measured.
DD01 administered at 40 nmol/kg, s.c. Q2D as positive control was delivered at 0.02% PS80 in PBS and dosing volume was 10 mL/kg. Body weight was monitored QD for 4 days.
The peptides were delivered at 0.02% PS80 in PBS and dosing volume was 10 mL/kg. Food intake, blood glucose, and body weight changes were monitored QD.

[2] = biological target: T1, human GIPR (Homo sapiens, UniProt P48546); assay: cAMP assay (HitHunter cAMP) in GIPR-expressing CHO-K1 cells (GIPR+ cells); format: cell-based
T1 construct: host or cells: CHO-K1
T1 sequence (P48546 22-466): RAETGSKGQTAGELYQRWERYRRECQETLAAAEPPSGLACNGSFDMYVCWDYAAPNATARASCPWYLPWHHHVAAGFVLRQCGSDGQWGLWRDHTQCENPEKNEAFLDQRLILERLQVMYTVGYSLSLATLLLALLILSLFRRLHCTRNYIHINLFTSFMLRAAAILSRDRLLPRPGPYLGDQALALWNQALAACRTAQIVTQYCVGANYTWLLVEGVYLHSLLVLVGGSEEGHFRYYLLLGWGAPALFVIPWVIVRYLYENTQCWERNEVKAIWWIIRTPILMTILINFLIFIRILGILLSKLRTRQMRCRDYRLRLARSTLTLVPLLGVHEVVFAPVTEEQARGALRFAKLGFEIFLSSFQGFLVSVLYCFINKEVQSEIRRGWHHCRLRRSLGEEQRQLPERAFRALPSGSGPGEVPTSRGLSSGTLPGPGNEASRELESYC
Procedure: (§1) The cells were seeded in a 96-well plate at 7×10^3 cells/well using cell plate reagent and incubated the cells overnight at 37° C. and 5% CO2. To perform the cAMP detection assay, cell plating reagent were replaced with the cAMP Assay buffer. Each of the wells was then treated with the diluted peptide and incubated for 30 minutes under conditions of a temperature of 37° C. in a CO2 incubator.
(§2) After the incubation, cAMP Antibody reagent and Working cAMP detection solution to all wells. Incubate the plate for 1 hour at Room temperature in the dark. Then, cAMP Solution A was added and incubated for 3 hours at room temperature in the dark. Subsequently, the luminescence was measured using the microplate reader device.

[3] = biological target: T2, human GCGR (Homo sapiens, UniProt P47871); assay: cAMP assay (HitHunter cAMP) in GCGR-expressing CHO-K1 cells (GCGR+ cells); format: cell-based
T2 construct: host or cells: CHO-K1
T2 sequence (P47871 26-477): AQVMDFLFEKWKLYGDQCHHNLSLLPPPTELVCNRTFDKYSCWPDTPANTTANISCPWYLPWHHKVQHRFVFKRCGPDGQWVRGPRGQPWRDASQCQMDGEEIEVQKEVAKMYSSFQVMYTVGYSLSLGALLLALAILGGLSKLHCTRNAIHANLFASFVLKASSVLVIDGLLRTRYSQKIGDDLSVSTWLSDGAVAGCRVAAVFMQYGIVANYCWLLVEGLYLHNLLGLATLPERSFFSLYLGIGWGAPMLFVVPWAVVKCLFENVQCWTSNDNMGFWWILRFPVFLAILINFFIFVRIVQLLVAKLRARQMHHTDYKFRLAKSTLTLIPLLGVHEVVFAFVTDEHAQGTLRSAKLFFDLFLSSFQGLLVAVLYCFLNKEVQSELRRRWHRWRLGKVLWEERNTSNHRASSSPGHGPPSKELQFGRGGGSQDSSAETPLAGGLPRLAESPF
Procedure: as §1, §2

[4] = biological target: T3, human GLP-1R (Homo sapiens, UniProt P43220); assay: cAMP assay (HitHunter cAMP) in GLP-1R-expressing CHO-K1 cells (GLP-1R+ cells); format: cell-based
T3 construct: host or cells: CHO-K1
T3 sequence (P43220 24-463): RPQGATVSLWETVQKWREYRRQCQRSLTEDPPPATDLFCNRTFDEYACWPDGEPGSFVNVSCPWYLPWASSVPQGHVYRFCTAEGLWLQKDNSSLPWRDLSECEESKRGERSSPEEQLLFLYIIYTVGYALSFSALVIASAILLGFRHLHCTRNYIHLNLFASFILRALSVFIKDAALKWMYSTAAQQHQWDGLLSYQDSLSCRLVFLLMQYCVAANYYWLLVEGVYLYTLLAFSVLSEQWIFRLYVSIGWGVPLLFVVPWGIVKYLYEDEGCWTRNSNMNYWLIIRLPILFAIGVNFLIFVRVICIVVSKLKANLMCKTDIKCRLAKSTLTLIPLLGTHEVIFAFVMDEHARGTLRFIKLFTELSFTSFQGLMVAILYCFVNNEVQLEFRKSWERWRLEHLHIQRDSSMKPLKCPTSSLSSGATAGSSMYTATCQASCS
Procedure: as §1, §2

[5] = Table 13, EC50 of STD peptide over EC50 of peptide
[6] = Table 14, normalised to activity at GLP-1R
[7] = Table 19, normalised to activity at GLP-1R
[8] = Table 24, ratio of EC50 of native ligand over peptide

CC[C@H](C)[C@H](NC(=O)[C@H](CC(C)C)NC(=O)[C@H](Cc1c[nH]c2ccccc12)NC(=O)[C@H](CCC(N)=O)NC(=O)[C@@H](NC(=O)[C@H](Cc1ccccc1)NC(=O)[C@H](CC(=O)O)NC(=O)[C@H](CCCNC(=N)N)NC(=O)[C@H](C)NC(=O)[C@H](CCSC)NC(=O)[C@H](CCSC)NC(=O)[C@H](Cc1ccc(O)cc1)NC(=O)[C@H](CC(=O)O)NC(=O)[C@H](CC(C)C)NC(=O)[C@H](Cc1ccc(O)cc1)NC(=O)[C@H](CCCCN)NC(=O)[C@H](CO)NC(=O)[C@H](Cc1ccc(O)cc1)NC(=O)[C@H](CC(=O)O)NC(=O)[C@H](CO)NC(=O)[C@@H](NC(=O)[C@H](Cc1ccccc1)NC(=O)[C@@H](NC(=O)CNC(=O)[C@H](CCC(N)=O)NC(=O)C(C)(C)NC(=O)[C@@H](N)Cc1c[nH]cn1)[C@@H](C)O)[C@@H](C)O)C(C)C)C(=O)N[C@@H](CCC(=O)O)C(=O)NCC(=O)NCC(=O)N1CCC[C@H]1C(=O)N[C@@H](CO)C(=O)N[C@@H](CO)C(=O)NCC(=O)N[C@@H](C)C(=O)N1CCC[C@H]1C(=O)N1CCC[C@H]1C(=O)N1CCC[C@H]1C(=O)N[C@@H](CO)C(=O)N[C@@H](CSC1CC(=O)N(CCNC(=O)COCCOCCNC(=O)COCCOCCNC(=O)CC[C@H](NC(=O)CCCCCCCCCCCCCCCCC(=O)O)C(=O)O)C1=O)C(N)=O (some centres unmarked) [5A]
body weight loss (BWL), in words ([1]; Example 3, 20 nmol/kg QD or 30 nmol/kg Q2D s.c., 4 days): Superior body weight loss
body weight loss effect, in words ([1]; Example 5, 20 nmol/kg s.c. QD, 4 days): Superior body weight loss effects
Weight loss (%) ([1]; 10 nmol/kg QD): 15.7 ± 2.2%
Weight loss (%) ([1]; 20 nmol/kg QD): 20.1 ± 1.3% and 18.8 ± 0.9% and 19.3 ± 1.9% and 22.9 ± 1.5%
Weight loss (%) ([1]; 30 nmol/kg Q2D): 14.6 ± 1.8%
Percentage change in EC50 relative to GIP at human GIPR (%) ([2]; Table 11, lipidated (A type) peptides): 5%
Activity relative to STD peptide (%), GIP [2, 5]: 1%
Activity relative to GLP-1 (%), GIP [2, 6]: 2%
Activity relative to STD peptide (%), GIPR ([2]; Table 18): 0%
Activity relative to GLP-1 (%), GIPR [2, 7]: 0%
Relative % to native ligand, GIPR [2, 8]: 5%
Ratio vs. GLP-1R, GIPR ([2]; Table 25): 2
Relative % to non-lipidated peptide, GIPR ([2]; Table 26): 167%
Percentage change in EC50 relative to GCG at human GCGR (%) ([3]; Table 10, lipidated (A type) peptides): 14%
Activity relative to STD peptide (%), Glucagon [3, 5]: 8%
Activity relative to GLP-1 (%), Glucagon [3, 6]: 10%
Activity relative to STD peptide (%), GCGR ([3]; Table 18): 8%
Activity relative to GLP-1 (%), GCGR [3, 7]: 2%
Relative % to native ligand, GCGR [3, 8]: 14%
Ratio vs. GLP-1R, GCGR ([3]; Table 25): 7
Relative % to non-lipidated peptide, GCGR ([3]; Table 26): 2%
Percentage change in EC50 relative to GLP-1 at human GLP-1R (%) ([4]; Table 9, lipidated (A type) peptides): 201%
Activity relative to STD peptide (%), GLP-1 [4, 5]: 84%
Activity relative to GLP-1 (%), GLP-1 [4, 6]: 100%
Activity relative to STD peptide (%), GLP-1R ([4]; Table 18): 520%
Activity relative to GLP-1 (%), GLP-1R [4, 7]: 100%
Relative % to native ligand, GLP-1R [4, 8]: 201%
Ratio vs. GLP-1R, GLP-1R ([4]; Table 25): 100
Relative % to non-lipidated peptide, GLP-1R ([4]; Table 26): 33%
